Test results published in patent US20120094985A1, “PHARMACEUTICAL COMPOSITIONS COMPRISING CHLOROPHENYL PIPERAZINE DERIVED COMPOUNDS AND USE OF THE COMPOUNDS IN PRODUCING MEDICAMENTS” (KAOHSIUNG MEDICAL UNIVERSITY, priority 2009, published 2012).

Legend:
Male ddk mice = experiment: Forced swim test (FST), mean immobility time; type: in vivo, mouse; settings: for immobility period in FST: 4 mg/kg each (FIG. 2)
Description: Male ddk mice weighing between 22 and 30 g, bred in the Center Animal House facility of Kaohsiung Medical University (KMU), Taiwan, were used. These experimental animals were housed under standard laboratory conditions and maintained on natural light and dark cycle, and had free access to food and water. Animals were acclimatized to laboratory conditions before the experiment. Each animal was used only once. All the experiments were carried out between 9 a.m. and 3 p.m. The experimental protocols were approved by the Animal Center of KMU, Taiwan.
Forced swim would induce immobility of an animal to simulate the phenomenon of human depression (Renard et al., 2003) and antidepressant was used to reverse this phenomenon (Kulkarni and Mehta, 1985). This test procedure was carried out according to the previous animal model (Reddy et al., 1998).
The doses of the drugs used were selected according to the previous studies (Patil et al., 2005). Different doses were administrated intraperitoneally in a fixed volume of 1 ml/100 g body weight for 30 minutes before the animals were subjected to test.
The possible participation of the NO/cGMP pathway in the antidepressant effect of Pulmodil was investigated. Mice were pretreated with NO/cGMP pathway regulation related drugs ([…], L-arginine, methylene blue or 7-nitroindazole), and then Pulmodil or vehicle was injected to the animal. Forced swim test was performed 30 minutes later.
The possible participation of the 5-HT pathway in the antidepressant effect of Pulmodul was investigated. Mice were pretreated with 5-HT pathway related drugs (DOI, m-CPP or SB200646), and then Pulmodil or vehicle was injected to the animal. Forced swim test was performed 30 minutes later.
Results expressed as mean (sec.)±S.E.M. and the data was analyzed using One-Way or Two-Way Analysis of Variance (ANOVA) where appropriate. If any statistically significant change was found, post-hoc comparisons were performed using a Dunnett's test. Data was deemed significant when P<0.05 was considered statistically significant.

[1] = tested on: cGMP concentration of mouse brain; experiment: cGMP analysis of mouse brain (ELISA); type: in vivo; settings: 30 minutes post injection, basal (vehicle) 0.131±0.003
Description: Male mice were given Pulmodil with intraperitoneal (i.p.) injection, where mice were divided into three groups, and 0.5, 1 and 2 mg/kg Pulmodil respectively for each group. After 30-minute injection, mice were anesthetized with […] chloral hydrate, and then were fixed on the stereotaxic frame (Narishige, Japan) to obtain mice brain. The isolated brain was homogenized and extracted with 0.1 N HCl. The extract was centrifuged at 4° C., at 14,000 rpm for 30 minutes, and supernatant was collected to determine cGMP concentration, which was determined with commercial enzyme-linked immunosorbent assay (ELISA) kit (Assay Designs) by acetylation procedure.

[2] = tested on: Male ddk mice pre-treated with Reserpine; experiment: Reserpine-induced forced swimming immobility; type: in vivo, mouse; settings: for Reserpine-induced immobility: Reserpine 2 mg/kg pre-treatment, then 4 mg/kg, p<0.05 (FIG. 4)
Description: Male ddk mice weighing between 22 and 30 g, bred in the Center Animal House facility of Kaohsiung Medical University (KMU), Taiwan, were used. […] Animals were acclimatized to laboratory conditions before the experiment. Each animal was used only once. All the experiments were carried out between 9 a.m. and 3 p.m. […] This test procedure was carried out according to the previous animal model (Reddy et al., 1998). […] Mice were pretreated with NO/cGMP pathway regulation related drugs (Reserpine, L-arginine, methylene blue or 7-nitroindazole), and then Pulmodil or vehicle was injected to the animal. Forced swim test was performed 30 minutes later.

COc1cc(CC(C)N)c(OC)cc1I (stereo not drawn) [DOI, 1-(2,5-dimethoxy-4-iodophenyl)-2-aminopropane, reference compound]
immobility per se (Male ddk mice; DOI 4 mg/kg i.p. alone (FIG. 8)): did not affect the immobility

CN(C)c1ccc2nc3ccc(=[N+](C)C)cc-3sc2c1 [Methylene blue, methylene blue, reference compound]
immobility time per se (Male ddk mice; methylene blue 10 mg/kg i.p. alone (FIG. 6)): did not affect the immobility time

Cl.Cn1c(=O)c2c(ncn2CCN2CCN(c3ccccc3Cl)CC2)n(C)c1=O [Pulmodil, 7-[2-[4-(2-chlorophenyl)piperazinyl]ethyl]-1,3-dimethylxanthine.acid]
immobility period in mouse FST (Male ddk mice; 4, 8 and 16 mg/kg, compared with vehicle, p<0.05 (FIG. 1)): produced a decrease in immobility period | immobility time after 7-nitroindazole pre-treatment (Male ddk mice; 7-nitroindazole 25 mg/kg i.p. for 30 minutes, then Pulmodil 8 mg/kg i.p., P<0.05 (FIG. 7)): shortened the immobility time | immobility time after DOI pre-treatment (Male ddk mice; DOI 4 mg/kg i.p. for 30 minutes, then Pulmodil 4 or 8 mg/kg i.p., in comparison with FIG. 1, p<0.05 (FIG. 8)): prolonged the immobility time | immobility period after L-arginine pre-treatment (Male ddk mice; L-arginine 750 mg/kg i.p. for 30 minutes, then Pulmodil 16 mg/kg i.p., compared to Pulmodil without L-arginine (FIG. 5)): increase in immobility period | immobility time after SB200646 pre-treatment (Male ddk mice; SB200646 4 mg/kg i.p., then Pulmodil 4 or 8 mg/kg i.p., p<0.05 (FIG. 10)): significantly reduced this immobility time | immobility time after m-CPP pre-treatment (Male ddk mice; m-CPP 4 mg/kg i.p., then Pulmodil 4 or 8 mg/kg i.p., in comparison with FIG. 1, p<0.05 (FIG. 9)): shortened this immobility time | immobility time after methylene blue pre-treatment (Male ddk mice; methylene blue 10 mg/kg i.p. for 30 minutes, then Pulmodil 8 mg/kg i.p., p<0.05 (FIG. 6)): significantly decreased the immobility time | cGMP concentration in the brain ([1]; 0.5 mg/kg i.p.): 0.201 ± 0.003 fmol/µg | cGMP concentration in the brain ([1]; 1 mg/kg i.p.): 0.293 ± 0.023 fmol/µg | cGMP concentration in the brain ([1]; 2 mg/kg i.p.): 0.288 ± 0.0234 fmol/µg

COC(=O)[C@H]1[C@H]2C[C@@H]3c4[nH]c5cc(OC)ccc5c4CCN3C[C@H]2C[C@@H](OC(=O)c2cc(OC)c(OC)c(OC)c2)[C@@H]1OC [Reserpine]
immobility period in mouse FST, Reserpine alone ([2]; Reserpine 2 mg/kg, p<0.05 (FIG. 3)): increased immobility period

Cl.Cn1ccc2cc(NC(=O)Nc3cccnc3)ccc21 [SB200646, N-(1-methyl-1H-5-indolyl)-N′-(3-pyridinyl)urea hydrochloride, reference compound]
immobility time per se (Male ddk mice; SB200646 4 mg/kg i.p. alone (FIG. 10)): did not affect the immobility time

CCCc1nn(C)c2c(=O)[nH]c(-c3cc(S(=O)(=O)N4CCN(C)CC4)ccc3OCC)nc12 [Sildenafil, reference compound]
immobility period in FST (Male ddk mice): could not significantly affect immobility time | Reserpine-induced immobility [2]: significantly inhibited

O=c1n(CCCN2CCN(c3cccc(Cl)c3)CC2)nc2ccccn12 [Trazodone, reference compound]
immobility period in FST (Male ddk mice): significantly decreased the immobility period | Reserpine-induced immobility [2]: significantly inhibited

Clc1cccc(N2CCNCC2)c1 [m-CPP, meta-chlorophenylpiperazine, reference compound]
immobility time per se (Male ddk mice; m-CPP 4 mg/kg i.p. alone, p<0.05 vs vehicle (FIG. 9)): mildly increased the immobility time

Cn1c(=O)c2c(ncn2CCN2CCN(c3ccccc3Cl)CC2)n(C)c1=O [xanthine-based compound, 7-[2-[4-(2-chlorophenyl)piperazinyl]ethyl]-1,3-dimethylxanthine]
immobility period after Reserpine pre-treatment ([2]; Reserpine 2 mg/kg for 4 hours, then 2, 3, 4 or 8 mg/kg, p<0.05 vs Reserpine (FIG. 3)): dose-dependently reduced the immobility period | Reserpine-induced immobility [2]: significantly inhibited
